Legend:
[1] = target: T1, avidin (Gallus gallus, UniProt P02701); test: Avidin binding saturation in solution, percentage binding determined by HPLC; settings: 2-128 nmol ligand, 2 nmol avidin, 5 min, room temperature
T1 construct: avidin (lyophilised powder, from egg white); purchased Sigma-Aldrich; host or cells: egg white
Description: The percentage binding was determined by HPLC analysis.
The incubation was carried out during 5 min at room temperature with varied ligand concentration resulting in ligand/avidin ratio of 0.25, 1, 4 and 16. Data are presented as mean±SD (n=2). […] The specific binding presented as the avidin consumption in percentage was plotted against the ratio of total molar concentration of added ligands and avidin. The result was analyzed by nonlinear regression using the GraphPad Prism Software.

[2] = system: porcine islets; settings: porcine islets in vitro; cited from earlier work

T1 sequence (P02701 25-152): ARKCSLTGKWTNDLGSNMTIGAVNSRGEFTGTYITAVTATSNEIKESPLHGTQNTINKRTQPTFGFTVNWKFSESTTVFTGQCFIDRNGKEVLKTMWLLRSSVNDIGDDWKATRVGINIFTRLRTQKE

| SMILES | binding to avidin in solution (in words) [1] | half-life of retention [2] [h] |
| --- | --- | --- |
| O=C(O)CCCC[C@@H]1SC[C@@H]2NC(=O)N[C@@H]21 [Biotin, 5-[(3aS,4S,6aR)-2-oxohexahydro-1H-thieno[3,4-d]imidazol-4-yl]pentanoic acid] | highest binding | – |
| OC[C@H]1OC(O)[C@H]([18F])[C@@H](O)[C@@H]1O (some centres unmarked) [[^18F]FDG] | – | 2.358 |

From patent US8846001B2 (GE Healthcare Limited, priority 2009, dated 2014)
